Structures are written as SMILES. Where a name gives a salt, the structure may show the parent alone.

The assay has as its target T1, Human GnRH receptor (Homo sapiens, UniProt P30968).
T1 construct: expressed in transfected cells; host or cells: CHO (Chinese hamster ovary) cells, membrane fraction
T1 sequence (P30968 1-328): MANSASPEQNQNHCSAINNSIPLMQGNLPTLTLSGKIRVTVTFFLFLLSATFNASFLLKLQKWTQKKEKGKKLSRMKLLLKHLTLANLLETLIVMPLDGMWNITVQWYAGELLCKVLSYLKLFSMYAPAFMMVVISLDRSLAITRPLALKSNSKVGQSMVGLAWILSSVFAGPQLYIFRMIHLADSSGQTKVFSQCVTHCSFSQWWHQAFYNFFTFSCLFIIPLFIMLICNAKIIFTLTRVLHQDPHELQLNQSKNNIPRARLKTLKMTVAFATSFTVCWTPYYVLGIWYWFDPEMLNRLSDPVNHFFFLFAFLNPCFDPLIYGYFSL
The assay can be described thus: Human GnRH receptor binding inhibition assay (125I-leuprolerin, membrane fraction of CHO cells expressing human GnRH receptors). To be noted: CHO cell membrane fraction with human GnRH receptors, 25° C., 60 minutes, concentration series, Hill plot, read-out: Binding inhibitory activity (IC50). The protocol:
Human GnRH receptor binding inhibition assay
(A) Preparation of ^125 I-leuprolerin
Ten (10) μl of 3×10^-4 M aqueous leuprolerin solution and 10 μl of 0.01 mg/ml lactoperoxidase solution were taken in a tube, and 10 μl of Na^125 I solution (37 MBq) was added. After stirring, 10 μl of 0.001% H2 O2 was added and the reaction was conducted at room temperature for 20 minutes. The reaction was stopped by adding 700 μl of 0.05% TFA solution, and the reaction mixture was purified by reversed HPLC. The HPLC parameters are shown below. The retention time of ^125 I-leuprolerin was 26-27 minutes.
Column: TSKgel ODS-80™ CTR (4.6 mm×10 cm)
Eluent: Solvent A (0.05%TFA) Solvent B (40%CH3 CN-0.05%TFA)
Min. 0 (100% Solvent A)--Min. 3 (100% Solvent A)--Min. 7 (50% Solvent A+50% Solvent B)--Min. 40 (100% Solvent B) Elution temperature: room temperature Elution flow rate: 1 ml/min.
CHO cells (10^9 cells) with human GnRH receptors expressed were floated on phosphate-buffered saline containing EDTA (PBS-EDTA) and centrifuged at 100×g for 5 minutes. To the pellet obtained was added 10 ml of a cell homogenate buffer (10 mM NaHCO3, 5 mM EDTA, pH 7.5) and the mixture was homogenized using a Polytron homogenizer. The homogenate was centrifuged at 400×g for 15 minutes and the supernatant was taken in an ultracentrifuge tube and recentrifuged at 100,000×g for 1 hour. The membrane fraction thus obtained as a pellet was suspended in 2 ml of assay buffer and centrifuged at 100,000×g for 1 hour. The membrane fraction recovered was resuspended in 20 ml of assay buffer and the suspension was portioned, stored at -80° C., and thawed when needed.
(C) Determination of the ^125 I-leuprolerin binding inhibition rate
The membrane fraction prepared in Step (B) was diluted with assay buffer to 200 μg/ml and the dilution was portioned into tubes, 188 μl per tube. Then, 2 μl of 2 mM solution of the test compound in 60% DMSO and 10 μl of 38 nM ^125 I-leuprolerin solution in the same solvent were simultaneously added to the tubes. To determine the maximum binding, a test mixture of 2 μl of 60% DMSO and 10 μl of 38 nM ^125 I-leuprolerin solution in the same solvent was prepared. For the determination of nonspecific binding, a test mixture of 2 μl of 100 μM leuprolerin solution in 60% DMSO and 10 μl of 38 nM solution of ^125 I-leuprolerin in the same solvent was also prepared. The mixtures were respectively allowed to react at 25° C. for 60 minutes and the reaction product in each tube was filtered through a poly(ethylene imine)-treated Whatman glass filter (GF-F) under suction. The radioactivity of ^125 I-leuprolerin remaining on the filter was determined using a γ-counter.
Using the measured values, the following equation was calculated to find the binding inhibition rate for each test compound.
Binding inhibition (%)=(TB-SB)/(TB-NSB)×100
[SB: radioactivity with the compound added
TB: maximum bound radioactivity
NBS: nonspecifically bound radioactivity]
Using a concentration series of each test compound, the concentration of the compound which inhibited the binding by 50% (IC50) was calculated by Hill plot.
One may read the IC50 as the point on the concentration scale where inhibition reaches its midpoint. Turning to `O=C(Nc1ccc(CN2C(=O)[C@H]3CCC[C@H]3N(C(=O)CN3C(=O)c4ccccc4C3=O)c3ccccc32)cc1)c1ccc(Br)cc1` (relative stereo) [Example 12, (3aR*,10aS*)-9-[4-(4-Bromobenzamido)benzyl]-4-(phthalimidoacetyl)-2,3,3a,4,9,10a-hexahydrobenzo[b]cyclopenta[e][1,4]diazepin-10(1H)-one], the half-inhibitory concentration (IC50) is 300 nM. As to `O=C(NCc1ccc(F)cc1)Nc1ccc(CN2C(=O)[C@H]3CCC[C@H]3N(C(=O)CN3C(=O)c4ccccc4C3=O)c3ccccc32)cc1` (relative stereo) [Example 31, (3aR*,10aS*)-9-[4-[3-(4-Fluorobenzyl)ureido]benzyl]-4-(phthalimidoacetyl)-2,3,3a,4,9,10a-hexahydrobenzo[b]-cyclopenta[e][1,4]diazepin-10(1H)-one], the IC50 came out at 30 nM.

As to `COc1ccc(C(=O)Nc2ccc(CN3C(=O)[C@H]4CCC[C@H]4N(C(=O)CN4C(=O)c5ccccc5C4=O)c4ccccc43)cc2)cc1` (relative stereo) [Example 15, (3aR*,10aS*)-9-[4-(4-Methoxybenzamido)benzyl]-4-(phthalimidoacetyl)-2,3,3a,4,9,10a-hexahydrobenzo[b]cyclopenta[e][1,4]diazepin-10(1H)-one], the 50% inhibitory concentration (IC50) worked out at 200 nM. The figure for `O=C(NCc1ccccc1)Nc1ccc(CN2C(=O)[C@H]3CCC[C@H]3N(C(=O)CN3C(=O)c4ccccc4C3=O)c3ccccc32)cc1` (relative stereo) [Example 25, (3aR*,10aS*)-9-[4-(3-benzylureido)benzyl]-4-(phthalimidoacetyl)-2,3,3a,4,9,10a-hexahydrobenzo[b]cyclopenta[e][1,4]diazepin-10(1H)-one] is 30 nM; for `O=C(Nc1ccc(CN2C(=O)[C@H]3CCC[C@H]3N(C(=O)CN3C(=O)c4ccccc4C3=O)c3ccccc32)cc1)c1ccc(Cl)cc1` (relative stereo) [Example 11, (3aR*,10aS*)-9-[4-(4-Chlorobenzamido)benzyl]-4-(phthalimidoacetyl)-2,3,3a,4,9,10a-hexahydrobenzo[b]cyclopenta[e][1,4]diazepin-10(1H)-one] it is 200 nM; for `O=C(COc1ccccc1)Nc1ccc(CN2C(=O)[C@H]3CCC[C@H]3N(C(=O)CN3C(=O)c4ccccc4C3=O)c3ccccc32)cc1` (relative stereo) [Example 18, (3aR*,10aS*)-9-[4-(Phenoxyacetamido)benzyl]-4-(phthalimidoacetyl)-2,3,3a,4,9,10a-hexahydrobenzo[b]cyclopenta[e][1,4]diazepin-10(1H)-one] it is 600 nM. As to `C[C@@H](NC(=O)Nc1ccc(CN2C(=O)[C@H]3CCC[C@H]3N(C(=O)CN3C(=O)c4ccccc4C3=O)c3ccccc32)cc1)c1ccccc1` (relative stereo) [Example 27, (3aR*,10aS*)-9-[4-[3-((R)-1-Phenylethyl)ureido]-benzyl]-4-(phthalimidoacetyl)-2,3,3a,4,9,10a-hexahydrobenzo[b]cyclopenta[e][1,4]diazepin-10(1H)-one], the IC50 came to 20 nM. For `C[C@H](NC(=O)Nc1ccc(CN2C(=O)[C@H]3CCC[C@H]3N(C(=O)CN3C(=O)c4ccccc4C3=O)c3ccccc32)cc1)c1ccccc1` (relative stereo) [Example 28, (3aR*,10aS*)-9-[4-[3-((S)-1-Phenylethyl)ureido]-benzyl]-4-(phthalimidoacetyl)-2,3,3a,4,9,10a-hexahydrobenzo[b]cyclopenta[e][1,4]diazepin-10(1H)-one] the value was 300 nM; for `COc1ccc(CNC(=O)Nc2ccc(CN3C(=O)[C@H]4CCC[C@H]4N(C(=O)CN4C(=O)c5ccccc5C4=O)c4ccccc43)cc2)cc1` (relative stereo) [Example 32, (3aR*,10aS*)-9-[4-[3-(4-Methoxybenzyl)ureido]-benzyl]-4-(phthalimidoacetyl)-2,3,3a,4,9,10a-hexahydro-benzo[b]cyclopenta[e][1,4]diazepin-10(1H)-one], 40 nM. Turning to `O=C(Nc1ccc(CN2C(=O)[C@H]3CCC[C@H]3N(C(=O)CN3C(=O)c4ccccc4C3=O)c3ccccc32)cc1)OCc1ccccc1` (relative stereo) [Example 1, (3aR*,10aS*)-9-[4-(Benzyloxycarbonylamino)benzyl]-4-(phthalimidoacetyl)-2,3,3a,4,9,10a-hexahydrobenzo[b]cyclopenta[e][1,4]diazepin-10(1H)-one], the IC50 turned out to be 100 nM. For `O=C(NCCc1ccccc1)Nc1ccc(CN2C(=O)[C@H]3CCC[C@H]3N(C(=O)CN3C(=O)c4ccccc4C3=O)c3ccccc32)cc1` (relative stereo) [Example 30, (3aR*,10aS*)-9-[4-[3-(2-Phenylethyl)ureido]benzyl]-4-(phthalimidoacetyl)-2,3,3a,4,9,10a-hexahydrobenzo[b]-cyclopenta[e][1,4]diazepin-10(1H)-one] the value was 40 nM; for `O=C(Nc1ccc(CN2C(=O)[C@H]3CCC[C@H]3N(C(=O)CN3C(=O)c4ccccc4C3=O)c3ccccc32)cc1)c1ccccc1F` (relative stereo) [Example 8, (3aR*,10aS*)-9-[4-(2-Fluorobenzamido)benzyl]-4-(phthalimidoacetyl)-2,3,3a,4,9,10a-hexahydrobenzo[b]cyclopenta[e][1,4]diazepin-10(1H)-one], 300 nM; for `COc1cccc(C(=O)Nc2ccc(CN3C(=O)[C@H]4CCC[C@H]4N(C(=O)CN4C(=O)c5ccccc5C4=O)c4ccccc43)cc2)c1` (relative stereo) [Example 14, (3aR*,10aS*)-9-[4-(3-Methoxybenzamido)benzyl]-4-(phthalimidoacetyl)-2,3,3a,4,9,10a-hexahydrobenzo[b]cyclopenta[e][1,4]diazepin-10(1H)-one], 200 nM. `CCC(=O)Nc1ccc(CN2C(=O)[C@H]3CCC[C@H]3N(C(=O)CN3C(=O)c4ccccc4C3=O)c3ccccc32)cc1` (relative stereo) [Example 6, (3aR*,10aS*)-4-(Phthalimidoacetyl)-9-(4-propionamidobenzyl)-2,3,3a,4,9,10a-hexahydrobenzo[b]cyclopenta[e][1,4]diazepin-10(1H)-one]: the 50% inhibitory concentration (IC50) is 800 nM.

For `O=C(Nc1ccc(CN2C(=O)[C@H]3CCC[C@H]3N(C(=O)CN3C(=O)c4ccccc4C3=O)c3ccccc32)cc1)c1ccc2ccccc2c1` (relative stereo) [Example 21, (3aR*,10aS*)-9-[4-(2-Naphthoylamino)benzyl]-4-(phthalimidoacetyl)-2,3,3a,4,9,10a-hexahyrobenzo[b]cyclopenta[e][1,4]diazepin-10(1H)-one], the IC50 worked out at 200 nM. For `O=C(NCc1ccccc1)Nc1ccc(CN2C(=O)[C@H]3CCC[C@H]3N(C(=O)CN3C(=O)C4=C(CCCC4)C3=O)c3ccccc32)cc1` (relative stereo) [Example 26, (3aR*,10aS*)-9-[4-(3-Benzylureido)benzyl]-4-(2H-1,3-dioxo-1,3,4,5,6,7-hexahydroisoindole-2-acetyl)-2,3,3a,4,9,10a-hexahydrobenzo[b]cyclopenta[e][1,4]diazepin-10(1H)-one] the value was 40 nM; for `O=C(NCc1ccncc1)Nc1ccc(CN2C(=O)[C@H]3CCC[C@H]3N(C(=O)CN3C(=O)c4ccccc4C3=O)c3ccccc32)cc1` (relative stereo) [Example 34, (3aR*,10aS*)-4-(Phthalimidoacetyl)-9-[4-[3-(4-pyridylmethyl)ureido]benzyl]-2,3,3a,4,9,10a-hexahydrobenzo[b]cyclopenta[e][1,4]diazepin-l0(1H)-one hydrochloride], 80 nM.

Values taken from US5866567A, “Diazepinones, their production and use” (Takeda Chemical Industries, Ltd., priority 1995, dated 1999).
